Data reported in US20100120700A1, “METHODS AND COMPOSITIONS FOR TREATING CERVICAL CANCER” (priority 2000, published 2010).
Where “and” joins values, the source holds several entries; their conditions need not be identical. Equal entries are not always repeated.

How the values were obtained:
Assay in all cases: G assay PDZ-PL binding
Details in all cases: peptide 10 uM, protein 5
INADL domain 3 = target: T1, INADL domain 3 (Homo sapiens, UniProt Q8NI35)
T1 construct: made in house; host or cells: E. coli (DH5alpha, BL21 or JM109)
T1 sequence (Q8NI35 with tags, fused parts or gaps): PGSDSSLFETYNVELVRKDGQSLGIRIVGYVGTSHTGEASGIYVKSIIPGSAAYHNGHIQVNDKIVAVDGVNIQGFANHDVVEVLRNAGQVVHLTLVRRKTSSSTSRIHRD
Description: (§1) (1) A PDZ-domain polypeptide is bound to a surface, e.g. a protein binding surface. In a preferred embodiment, a GST/PDZ fusion protein containing one or more PDZ domains is bound to a polystyrene 96-well plate. […] In one embodiment, the GST/PDZ fusion protein is bound via an anti-GST antibody that is coated onto the 96-well plate. Adequate binding to the plate can be achieved when: • a. 100 uL per well of 5 ug/mL goat anti-GST polyclonal antibody (Pierce) in PBS is added to a polystyrene 96-well plate (e.g., Num Polysorb) at 4° C. for 12 hours. • b. The plate is blocked by addition of 200 uL per well of PBS/BSA for 2 hours at 4° C. • c. The plate is washed 3 times with PBS. • d. 50 uL per well of 5 ug/mL GST/PDZ fusion protein) or, as a negative control, GST polypeptide alone (i.e. not a fusion protein) in PBS/BSA is added to the plate for 2 hours at 4° C. • e. The plate is again washed 3 times with PBS. […]
(§2) (3) The binding of the biotinylated peptide to the GST/PDZ fusion protein surface can be detected using a variety of methods and detectors known to one of skill in the art. In one embodiment, 100 uL per well of 0.5 ug/mL streptavidin-horse radish peroxidase (HRP) conjugate dissolved in BSA/PBS is added and allowed to react for 20 minutes at 4° C. The plate is then washed 5 times with 50 mM Tris pH 8.0 containing 0.2% Tween 20, and developed by addition of 100 uL per well of HRP-substrate solution (TMB, Dako) for 20 minutes at room temperature (RT). The reaction of the HRP and its substrate is terminated by addition of 100 uL per well of 1M sulfuric acid, and the absorbance of each well of the plate is read at 450 nm.
(§3) (4) Specific binding of a PL peptide and a PDZ domain polypeptide is determined by comparing the signal from the well(s) in which the PL peptide and PDZ domain polypeptide are combined, with the background signal(s). The background signal is the signal found in the negative control(s). Typically a specific or selective reaction will be at least twice background signal, more typically more than 5 times background, and most typically 10 or more times the background signal. In addition, a statistically significant reaction will involve multiple measurements of the reaction with the signal and the background differing by at least two standard errors, more typically four standard errors, and most typically six or more standard errors. Correspondingly, a statistical test (e.g. a T-test) comparing repeated measurements of the signal with-repeated measurements of the background will result in a p-value<0.05, more typically a p-value<0.01, and most typically a p-value<0.001 or less. As noted, in an embodiment of the “G” assay, the signal from binding of a given PL peptide to immobilized (surface bound) GST polypeptide alone is one suitable negative control (sometimes referred to as “B 1”). Because all measurement are done in multiples (i.e. at least duplicate) the arithmetic mean (or, equivalently, average.) of several measurements is used in determining the binding, and the standard error of the mean is used in determining the probable error in the measurement of the binding. The standard error of the mean of N measurements equals the square root of the following: the sum of the squares of the difference between each measurement and the mean, divided by the product of (N) and (N−1). Thus, in one embodiment, specific binding of the PDZ protein to the platebound peptide is determined by comparing the mean signal (“mean S”) and standard error of the signal (“SE”) for a particular PL-PDZ combination with the mean B1.
(§4) For convenience, the assay conditions described in this section are referred to as the “G’ assay” and the “G” assay,” with the specific conditions described in the preceding section on G assays being referred to as the “G° assay.” The “G′ assay” is identical to the “G° assay” except at step (2) the peptide concentration is 10 uM instead of 20 uM. […]

ZO-1 domain 1 = target: T2, ZO-1 domain 1 (Homo sapiens, UniProt Q07157)
T2 construct: made in house; host or cells: E. coli (DH5alpha, BL21 or JM109)
T2 sequence (Q07157 with tags, fused parts or gaps): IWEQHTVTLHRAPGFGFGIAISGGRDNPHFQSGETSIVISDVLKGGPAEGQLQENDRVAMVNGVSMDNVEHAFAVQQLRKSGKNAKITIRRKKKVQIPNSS
Description: as §1, §2, §3, §4

KIAA1634 domain 1 = target: T3, KIAA1634 domain 1 (Homo sapiens, UniProt Q5TCQ9)
T3 construct: made in house; host or cells: E. coli (DH5alpha, BL21 or JM109)
T3 sequence (Q5TCQ9 401-502): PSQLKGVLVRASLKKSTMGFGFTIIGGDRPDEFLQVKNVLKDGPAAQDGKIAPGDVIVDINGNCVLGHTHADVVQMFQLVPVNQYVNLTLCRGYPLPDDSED
Description: as §1, §2, §3, §4

HTRA 3 domain 1 = target: T4, HTRA 3 domain 1 (Homo sapiens, UniProt P83110)
T4 construct: made in house; host or cells: E. coli (DH5alpha or BL-21)
T4 sequence (P83110 with tags, fused parts or gaps): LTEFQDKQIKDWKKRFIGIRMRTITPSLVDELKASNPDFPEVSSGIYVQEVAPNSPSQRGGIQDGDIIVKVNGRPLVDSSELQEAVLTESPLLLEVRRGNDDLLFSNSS
Description: as §1, §2, §3, §4

AIPC domain 1 = target: T5, AIPC domain 1 (Homo sapiens, UniProt O15018)
T5 construct: made in house; host or cells: E. coli (DH5alpha, BL21 or JM109), vector pGEX-3X
T5 sequence (O15018 with tags, fused parts or gaps): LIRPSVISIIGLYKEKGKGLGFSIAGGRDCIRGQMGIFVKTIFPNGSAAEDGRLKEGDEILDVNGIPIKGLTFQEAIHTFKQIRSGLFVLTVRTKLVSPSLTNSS
Description: as §1, §2, §3, §4

PSD95 domain 1 = target: T6, PSD95 domain 1 (Homo sapiens, UniProt P78352)
T6 construct: made in house; host or cells: E. coli (DH5alpha, BL21 or JM109), vector pGEX-3X
T6 sequence (P78352 62-156): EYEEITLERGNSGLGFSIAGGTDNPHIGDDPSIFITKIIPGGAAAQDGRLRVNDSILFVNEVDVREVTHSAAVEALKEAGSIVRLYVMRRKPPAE
Description: as §1, §2, §3, §4

PAR3 #182.1 domain 3 = target: T7, PAR3 #182.1 domain 3 (Homo sapiens, UniProt Q8TEW0)
T7 construct: made in house; host or cells: E. coli (DH5alpha or BL-21)
T7 sequence (Q8TEW0 579-681): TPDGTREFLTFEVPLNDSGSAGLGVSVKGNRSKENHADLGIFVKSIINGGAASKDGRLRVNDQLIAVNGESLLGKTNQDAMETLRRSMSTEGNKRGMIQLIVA
Description: as §1, §2, §3, §4

EBP50 #287.1 domain 2 = target: T8, EBP50 #287.1 domain 2 (Homo sapiens, UniProt O14745)
T8 construct: made in house; host or cells: E. coli (DH5alpha, BL21 or JM109)
T8 sequence (O14745 with tags, fused parts or gaps): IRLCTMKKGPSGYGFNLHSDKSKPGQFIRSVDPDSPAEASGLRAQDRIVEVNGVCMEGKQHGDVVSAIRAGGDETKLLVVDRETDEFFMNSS
Description: as §1, §2, §3, §4

GTPase domain 1 = target: T9, GTPase domain 1 (Homo sapiens, UniProt Q96FS4)
T9 construct: made in house; host or cells: E. coli (DH5alpha, BL21 or JM109)
T9 sequence (Q96FS4 680-767): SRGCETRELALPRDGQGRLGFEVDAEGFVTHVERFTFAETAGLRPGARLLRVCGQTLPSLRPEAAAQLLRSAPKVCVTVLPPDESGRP
Description: as §1, §2, §3, §4

MAGI 1 domain 4 = target: T10, MAGI 1 domain 4 (Homo sapiens, UniProt Q96QZ7)
T10 construct: made in house; host or cells: E. coli (DH5alpha, BL21 or JM109)
T10 sequence (Q96QZ7 with tags, fused parts or gaps): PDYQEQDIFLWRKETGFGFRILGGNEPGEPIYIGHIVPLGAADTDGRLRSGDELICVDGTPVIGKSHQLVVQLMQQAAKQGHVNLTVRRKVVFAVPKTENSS
Description: as §1, §2, §3, §4

KIAA0973 #148.5 domain 1 = target: T11, KIAA0973 #148.5 domain 1 (Homo sapiens, UniProt Q9Y2H9)
T11 construct: made in house; host or cells: E. coli (DH5alpha, BL21 or JM109)
T11 sequence (Q9Y2H9 963-1055): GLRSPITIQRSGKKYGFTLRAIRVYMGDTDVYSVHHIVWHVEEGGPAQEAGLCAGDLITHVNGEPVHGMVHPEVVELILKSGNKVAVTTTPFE
Description: as §1, §2, §3, §4

ZO-1 domain 2 = target: T12, ZO-1 domain 2 (Homo sapiens, UniProt Q07157, DEL264-264)
T12 construct: made in house; host or cells: E. coli (DH5alpha, BL21 or JM109)
T12 sequence (Q07157 with tags, fused parts or gaps DEL264-264): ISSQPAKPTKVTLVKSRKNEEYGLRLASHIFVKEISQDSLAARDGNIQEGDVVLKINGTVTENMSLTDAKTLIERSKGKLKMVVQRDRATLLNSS
Description: as §1, §2, §3, §4

EBP50 #341.1 domain 1 = target: T13, EBP50 #341.1 domain 1 (Homo sapiens, UniProt O14745)
T13 construct: made in house; host or cells: E. coli (DH5alpha or BL-21)
T13 sequence (O14745 with tags, fused parts or gaps): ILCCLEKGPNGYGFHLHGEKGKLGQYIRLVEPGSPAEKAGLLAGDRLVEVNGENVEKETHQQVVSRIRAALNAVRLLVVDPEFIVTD
Description: as §1, §2, §3, §4

PIST domain 1 = target: T14, PIST domain 1 (Homo sapiens, UniProt Q9HD26)
T14 construct: made in house; host or cells: E. coli (DH5alpha or BL-21)
Description: as §1, §2, §3, §4

For “20 mer peptide corresponding to the C-terminus of HPV16 E6 (PDZ ligand), biotinylated in binding assays; ends SSRTRRETQL (SEQ ID NO: 13) [HPV E6 #16]”, the “Ave OD” value (INADL domain 3; A450 nm) was 0.485, the “OD S/N” value (INADL domain 3; vs GST only well) was 1.86 and the “Ave OD” value (ZO-1 domain 1; A450 nm) was 0.4125 and 0.5215. For the same substance, the “OD S/N” value (ZO-1 domain 1; vs GST only well) was 1.83 and 2.83, the “Ave OD” value (KIAA1634 domain 1; A450 nm) was 3.465 and 3.336 and the “OD S/N” value (KIAA1634 domain 1; vs GST only well) was 19.04 and 19.45. For the same substance, the “Ave OD” value (HTRA 3 domain 1; A450 nm) was 0.4135, the “OD S/N” value (HTRA 3 domain 1; vs GST only well) was 1.34 and the “Ave OD” value (AIPC domain 1; A450 nm) was 0.5595. The “OD S/N” value (AIPC domain 1; vs GST only well) was 2.30, the “Ave OD” value (PSD95 domain 1; A450 nm) was 0.942 and the “OD S/N” value (PSD95 domain 1; vs GST only well) was 4.81. The “Ave OD” value (PAR3 #182.1 domain 3; A450 nm) was 0.445, the “OD S/N” value (PAR3 #182.1 domain 3; vs GST only well) was 2.07 and the “Ave OD” value (EBP50 #287.1 domain 2; A450 nm) was 0.499. For the same substance, the “OD S/N” value (EBP50 #287.1 domain 2; vs GST only well) was 2.57, the “Ave OD” value (GTPase domain 1; A450 nm) was 0.3505 and the “OD S/N” value (GTPase domain 1; vs GST only well) was 1.12. For the same substance, the “Ave OD” value (MAGI 1 domain 4; A450 nm) was 0.395 and 0.496, the “OD S/N” value (MAGI 1 domain 4; vs GST only well) was 1.20 and 1.58 and the “Ave OD” value (KIAA0973 #148.5 domain 1; A450 nm) was 0.378 and 0.4985. The “OD S/N” value (KIAA0973 #148.5 domain 1; vs GST only well) was 1.68 and 2.71, the “Ave OD” value (ZO-1 domain 2; A450 nm) was 0.518 and the “OD S/N” value (ZO-1 domain 2; vs GST only well) was 3.02. The “Ave OD” value (EBP50 #341.1 domain 1; A450 nm) was 0.43, the “OD S/N” value (EBP50 #341.1 domain 1; vs GST only well) was 1.65 and the “Ave OD” value (PIST domain 1; A450 nm) was 0.3855. The “OD S/N” value (PIST domain 1; vs GST only well) was 1.96.
